# According to PubChem BioAssay AID2060353 (Molecular Pharmacology Branch, DTP, NCI, 2025):
# Several values for one entry are separate records, joined by “and”; a condition that tells them apart may be missing. Identical values can stand only once.
# Test system: 521955-158-R2-J5-PDC spheroids with stroma, growth inhibition
# Experiment: Anticancer human tumor 521955-158-R2-J5-PDC patient-derived pancreatic carcinoma cell line growth inhibition [TAK]
# Details: for viability, T/C: stronger effect = lower value
# Description: Combinatorial screen of targeted agents with TAK-243 and ipatasertib in multi-cell type tumor spheroids
# A high-throughput screen of multi-cell type tumor spheroids was designed to identify active combinations of targeted small molecules and TAK-243 or ipatasertib. Complex spheroids include a stromal component modeled by human endothelial cells (HUVEC) and fibroblasts modeled by human mesenchymal stem cells (MSCs). The concentration ranges selected for each drug and investigational agent were based upon clinically achievable concentrations if the clinical Cmax of the agent was known.
# Compounds. The drugs and investigational agents: TAK-243 (785004), ipatasertib (767898), everolimus (733504), selumetinib (741078), bortezomib (756655), trametinib (758246), ixazomib (758254), vemurafenib (761431), dabrafenib (764134), sapanisertib (764658), alpelisib (765974), and copanlisib (816437), were obtained from the National Cancer Institute (NCI) Developmental Therapeutics Program Chemical Repository. The FDA-approved anticancer drug set is available from the NCI Developmental Therapeutics Program. […] The stock solutions were prepared in dimethyl sulfoxide (DMSO, Sigma-Aldrich, St. Louis, MO, cat. D2650) at 800-fold the tested concentration and stored at -70 degrees C prior to their use. All drugs and investigational agents were tested over a range starting from a high concentration at or near the clinical Cmax and decreasing in half-log increments. If the clinical Cmax for an agent had not been determined, the highest concentration tested was 10 microM.
# NCI60 Cell Culture. NCI60 cell lines were obtained from the NCI Developmental Therapeutics Program Tumor Repository. For each lot of cells, the Repository performed Applied Biosystems AmpFLSTR Identifiler testing with PCR amplification to confirm consistency with the published Identifier STR profile for each cell line. Cells were kept in continuous culture for no more than 20 passages. The optimal seeding densities for each of the cell lines at each time point assessed were determined prior to performing the concentration response studies. Briefly, the NCI60 human tumor lines were grown as monolayers in RPMI 1640 medium supplemented with 10% FBS and 2 mmol/L L-glutamine.
# An additional 2 lines were from the NCI60 cell line panel including melanomas, MALME-3M and SK-MEL-2. Pooled donor human umbilical vein endothelial cells (HUVEC, Lonza, cat. CC-2519) and human mesenchymal stem cells (hMSC, Lonza, cat. PT-2501) were purchased from Lonza (Walkersville, MD).
# PDMR cell lines were grown in complete medium (DC medium): Dulbecco's modified Eagle's medium (DMEM)/F12 supplemented with 5% fetal bovine serum (FBS), 2 mM L-glutamine, 100 U/mL penicillin and 100 µg/ml streptomycin, 0.4 µg/ml hydrocortisone, 10 ng/ml epidermal growth factor (EGF) recombinant human protein, 24 µg/mL adenine, and 0.1 mg/mL primocin. During culture from frozen stock vials, PDMR cells were cultured in the same medium containing 10 µM Y-27632 (see Table 3). The PDCs were cultured in complete DMEM/F12 media without 10 microM Y-27632 dihydrochloride for at least two passages prior to the screen. The pooled donor HUVEC and hMSC were cultured in endothelial cell growth medium 2 (PromoCell, Heidelberg, Germany, cat. C-22011) and mesenchymal stem cell growth medium 2 (PromoCell, cat. C-28009), respectively. For all experiments, HUVEC and hMSC were used at passages </=5.
# For the pre-screen, cell seeding densities were determined from a titration spanning the range from 5,000 to 313 cells per well. The mct-spheroids including 60% malignant cells, 25% HUVEC and 15% MSC dispensed as a mixture into U-bottom Ultra-Low Attachment 384-well plates (Corning, NY)
# High-throughput Drug Combination Screening.
# Prior to their inoculation into 384-well plates, malignant cells, HUVEC, and hMSC were removed from T flasks using TrypLE express (Thermo Fisher Scientific, cat. 12605036) and harvested by centrifugation for 5 min at 233 x g. […]
# [1] = curve of first compound, second compound 0.3 µM
# [2] = curve of first compound, second compound 0.949 µM
# [3] = curve of first compound, second compound 3 µM
# [4] = curve of first compound, second compound 9.49 µM
# [5] = curve of first compound, second compound 30 µM
# 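Also: spheroids exposed to drugs for seven days before readout.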
# 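For viability, T/C in this document: 100% = DMSO vehicle control viability.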
structure (smiles),measurement,setting,value
CC(=O)Nc1cccc(-n2c(=O)n(C3CC3)c(=O)c3c(Nc4ccc(I)cc4F)n(C)c(=O)c(C)c32)c1,"viability, T/C",compound 94.9 pM,104% and 87%
same,"viability, T/C",compound 0.0003 µM,79.1% and 65.4%
same,"viability, T/C",compound 0.000949 µM,52% and 51.3%
same,"viability, T/C",compound 0.003 µM,48.2% and 48.1%
same,"viability, T/C",compound 0.00949 µM,38.6% and 39.5%
same,"viability, T/C",compound 0.03 µM,27.5% and 24.4%
same,IC50,curve of compound,1.87 nM and 1.69 nM
CC(C)NCC(C(=O)N1CCN(c2ncnc3c2C(C)CC3O)CC1)c1ccc(Cl)cc1 (configuration not stated),"viability, T/C",compound 0.3 µM,101% [middle of 10 runs]
same,"viability, T/C",compound 0.949 µM,81.5% [middle of 10 runs]
same,"viability, T/C",compound 3 µM,82.7% [middle of 10 runs]
same,"viability, T/C",compound 30 µM,56.5% [middle of 10 runs]
same,IC50,"compound alone, run of 02/20/2020",> 30000 nM
CC(C)CC(NC(=O)C(Cc1ccccc1)NC(=O)c1cnccn1)B(O)O (configuration not stated) + CC(C)NCC(C(=O)N1CCN(c2ncnc3c2C(C)CC3O)CC1)c1ccc(Cl)cc1,IC50,[1],5.69 nM
same,IC50,[2],5.25 nM
same,IC50,[3],4.97 nM
same,IC50,[4],5.95 nM
same,IC50,[5],3.86 nM
same,"viability, T/C","second compound 0.3 µM, first compound 31.6 pM",105%
same,"viability, T/C","second compound 0.3 µM, first compound 0.0001 µM",101%
same,"viability, T/C","second compound 0.3 µM, first compound 0.000316 µM",91.4%
same,"viability, T/C","second compound 0.3 µM, first compound 0.001 µM",92.8%
same,"viability, T/C","second compound 0.3 µM, first compound 0.00316 µM",93.9%
same,"viability, T/C","second compound 0.3 µM, first compound 0.01 µM",7.88%
same,"viability, T/C","second compound 0.949 µM, first compound 31.6 pM",80.2%
same,"viability, T/C","second compound 0.949 µM, first compound 0.0001 µM",85.4%
same,"viability, T/C","second compound 0.949 µM, first compound 0.000316 µM",78.1%
same,"viability, T/C","second compound 0.949 µM, first compound 0.001 µM",82.6%
same,"viability, T/C","second compound 0.949 µM, first compound 0.00316 µM",91.8%
same,"viability, T/C","second compound 0.949 µM, first compound 0.01 µM",7.37%
same,"viability, T/C","second compound 3 µM, first compound 31.6 pM",70%
same,"viability, T/C","second compound 3 µM, first compound 0.0001 µM",81.6%
same,"viability, T/C","second compound 3 µM, first compound 0.000316 µM",76.6%
same,"viability, T/C","second compound 3 µM, first compound 0.001 µM",78.2%
same,"viability, T/C","second compound 3 µM, first compound 0.00316 µM",81.8%
same,"viability, T/C","second compound 3 µM, first compound 0.01 µM",7.09%
same,"viability, T/C","second compound 9.49 µM, first compound 31.6 pM",100%
same,"viability, T/C","second compound 9.49 µM, first compound 0.0001 µM",110%
same,"viability, T/C","second compound 9.49 µM, first compound 0.000316 µM",111%
same,"viability, T/C","second compound 9.49 µM, first compound 0.001 µM",94.3%
same,"viability, T/C","second compound 9.49 µM, first compound 0.00316 µM",113%
same,"viability, T/C","second compound 9.49 µM, first compound 0.01 µM",4.23%
same,"viability, T/C","second compound 30 µM, first compound 31.6 pM",54.3%
same,"viability, T/C","second compound 30 µM, first compound 0.0001 µM",64.6%
same,"viability, T/C","second compound 30 µM, first compound 0.000316 µM",56.2%
same,"viability, T/C","second compound 30 µM, first compound 0.001 µM",56.7%
same,"viability, T/C","second compound 30 µM, first compound 0.00316 µM",68.6%
same,"viability, T/C","second compound 30 µM, first compound 0.01 µM",1.83%
CCCS(=O)(=O)Nc1ccc(F)c(C(=O)c2c[nH]c3ncc(-c4ccc(Cl)cc4)cc23)c1F + CC(C)NCC(C(=O)N1CCN(c2ncnc3c2C(C)CC3O)CC1)c1ccc(Cl)cc1,IC50,[1],> 100000 nM
same,IC50,[2],> 100000 nM
same,IC50,[3],15900 nM
same,IC50,[4],6340 nM
same,IC50,[5],1140 nM
same,"viability, T/C","second compound 0.3 µM, first compound 0.316 µM",107%
same,"viability, T/C","second compound 0.3 µM, first compound 1 µM",134%
same,"viability, T/C","second compound 0.3 µM, first compound 3.16 µM",108%
same,"viability, T/C","second compound 0.3 µM, first compound 10 µM",165%
same,"viability, T/C","second compound 0.3 µM, first compound 31.6 µM",18.9%
same,"viability, T/C","second compound 0.3 µM, first compound 100 µM",122%
same,"viability, T/C","second compound 0.949 µM, first compound 0.316 µM",108%
same,"viability, T/C","second compound 0.949 µM, first compound 1 µM",123%
same,"viability, T/C","second compound 0.949 µM, first compound 3.16 µM",107%
same,"viability, T/C","second compound 0.949 µM, first compound 10 µM",103%
same,"viability, T/C","second compound 0.949 µM, first compound 31.6 µM",22.2%
same,"viability, T/C","second compound 0.949 µM, first compound 100 µM",111%
same,"viability, T/C","second compound 3 µM, first compound 0.316 µM",100%
same,"viability, T/C","second compound 3 µM, first compound 1 µM",99.4%
same,"viability, T/C","second compound 3 µM, first compound 3.16 µM",99.2%
same,"viability, T/C","second compound 3 µM, first compound 10 µM",70.1%
same,"viability, T/C","second compound 3 µM, first compound 31.6 µM",19.9%
same,"viability, T/C","second compound 3 µM, first compound 100 µM",12.1%
same,"viability, T/C","second compound 9.49 µM, first compound 0.316 µM",84.8%
same,"viability, T/C","second compound 9.49 µM, first compound 1 µM",89.8%
same,"viability, T/C","second compound 9.49 µM, first compound 3.16 µM",69.9%
same,"viability, T/C","second compound 9.49 µM, first compound 10 µM",36.1%
same,"viability, T/C","second compound 9.49 µM, first compound 31.6 µM",14.2%
same,"viability, T/C","second compound 9.49 µM, first compound 100 µM",6.73%
same,"viability, T/C","second compound 30 µM, first compound 0.316 µM",51.7%
same,"viability, T/C","second compound 30 µM, first compound 1 µM",50.9%
same,"viability, T/C","second compound 30 µM, first compound 3.16 µM",40.4%
same,"viability, T/C","second compound 30 µM, first compound 10 µM",5.79%
same,"viability, T/C","second compound 30 µM, first compound 31.6 µM",4.82%
same,"viability, T/C","second compound 30 µM, first compound 100 µM",4.7%
